Laboratory results: patent US20250288704A1, “CXCR4-LIGANDS FOR DIAGNOSTIC AND THERAPEUTIC USE AND PRECURSORS THEREOF” (priority 2021, published 2025)
Starred links: 1 amine or outer side, 2 acyl side, 3 side chain; linkers in the order of their positions; H or OH if unused. Positions of bridges follow the written chain, without caps; N, C: chain ends. Non-standard residues stand in square brackets, D forms with d. Residues, ends and D or L forms follow the SMILES beside them. Groups on a side chain read outwards from the residue. Chains are numbered I, II in the order given. *: point of attachment. X7 = O=C(O)CN1CCN(CC(=O)O)CCN([C@H](CCC(=O)*)C(=O)O)CCN(CC(=O)O)CC1; Benzoyl(4-SiFtBu2) = CC(C)(C)[Si](F)(c1ccc(C(=O)*)cc1)C(C)(C)C; DOTA = O=C(O)CN1CCN(CC(=O)O)CCN(CC(=O)*)CCN(CC(=O)O)CC1; d(γGlu) = O=C(O)[C@@H](CCC(=O)[*:2])N[*:1]; dTyr(3-I) = N[C@H](Cc1ccc(O)c(I)c1)C(=O)O; 2Nal = N[C@@H](Cc1ccc2ccccc2c1)C(=O)O; dCit = NC(=O)NCCC[C@@H](N)C(=O)O; dNMeOrn = CN[C@H](CCCN)C(=O)O; 4Abz = Nc1ccc(C(=O)O)cc1; dDap = NC[C@@H](N)C(=O)O; CO = O=C([*:1])[*:2]

Legend:
[1] = system: CXCR4-expressing Chem_1 cells; assay: Determination of internalization, dual tracer with 125I-Fc-131; format: cell-based; details: for Cell-bound [%] / Internalized [%]: of total cellular activity; for Internalization [% Fc-131] 2 h: 177Lu-labeled
Procedure: CXCR4-expressing Chem_1 cells were grown in DMEM-F12 medium supplemented with 10 vol % FBS, 1 vol % NEA, 1 vol % PenStrep and 1 vol % HEPES (1.00 M). Cells were maintained in a 5% CO2 atmosphere at 37° C.
For in vitro experiments, cells were harvested by removal of the medium and incubation of the cells with trypsine/EDTA (0.05%/0.02%; w/v) for 30 in at 37° C.
Each well (n=3 for every time point) was either treated with 25 μL DMEM-F12 (+5 wt % BSA) or 25 μL of an AMD3100 stock (1 mM in H2O) for blockage of the receptors.
The experiment was stopped by placing the well-plate on ice and removing the supernatant. The cells were washed with 250 μL cold HBSS and the both fractions for each well combined, comprising the amount of unbound radioligand.
The supernatant was removed, the cells washed with cold HBSS and the respective fractions combined to obtain the amount of surface-bound radioligand.
The cells were then incubated with 300 μL NaOH (1.00 M in H2O) for at least 30 at r.t. before the supernatant was removed. The well was washed with another 300 μL NaOH and the fractions combined that contain the amount of internalized radioligand.
The three different fractions were subjected to activity measurement in the γ-counter, measuring the activity of the radionuclide used for the labeling of the peptide under investigation first. […] Data was corrected for non-specific internalization and referred to the specific internalization of the standard ligand

[2] = Octanol/PBS partition coefficient (logD7.4); format: physicochemical; details: n-octanol/PBS pH 7.4, radiolabeled compound
Procedure: The tubes were vortexed at maximum speed for 3 min to ensure equilibrium before centrifugation at 15.000×g for 5 min on a Biofuge 15 from Heraeus Holding GmbH (Osterode, Germany). An aliquot of 100 μL of each fraction was measured in the γ-counter and the log D7.4 calculated as follows: […]

| Structure (SMILES) | Internalized in relation to 125I-Fc-131 [%] ([1]; 15 min) | Cell-bound [%] ([1]; 15 min) | Internalized [%] ([1]; 15 min) | Internalized in relation to 125I-Fc-131 [%] ([1]; 30 min) | Cell-bound [%] ([1]; 30 min) | Internalized [%] ([1]; 30 min) | Internalized in relation to 125I-Fc-131 [%] ([1]; 60 min) | Cell-bound [%] ([1]; 60 min) | Internalized [%] ([1]; 60 min) | Internalized in relation to 125I-Fc-131 [%] ([1]; 120 min) | Internalization [% Fc-131] 2 h [1] | Cell-bound [%] ([1]; 120 min) | Internalized [%] ([1]; 120 min) | logD7.4 [2] | Internalization [% Fc-131] ([1]; 90 min) | Internalized in relation to 125I-Fc-131 [%] ([1]; 90 min) | Cell-bound [%] ([1]; 90 min) | Internalized [%] ([1]; 90 min) |
| --- | --- | --- | --- | --- | --- | --- | --- | --- | --- | --- | --- | --- | --- | --- | --- | --- | --- | --- |
| C[C@@H](NC(=O)[C@@H](CCCNC(=N)N)NC(=O)[C@@H](CN)NC(=O)CN1CCN(CC(=O)O)CCN(CC(=O)O)CCN(CC(=O)O)CC1)C(=O)Nc1ccc(C(=O)NCCC[C@@H]2C(=O)N[C@@H](CCCNC(=N)N)C(=O)N[C@@H](Cc3ccc4ccccc4c3)C(=O)NCC(=O)N[C@H](Cc3ccc(O)cc3)C(=O)N2C)cc1 [CXCR4-DOTA-3 [Lu]] (cyclo([dY][dNMeOrn]([4Abz-dA-dR-dDap-DOTA])R[2Nal]G)) | 180 ± 32.6% | 6.46 ± 1.07% | 15.2 ± 0.99% | 259 ± 23.0% | 9.88 ± 0.54% | 22.2 ± 0.78% | 289 ± 22.4% | 13.4 ± 0.84% | 33.4 ± 0.87% | 366 ± 69.5% | 366 % Fc-131 | 17.1 ± 2.69% | 38.4 ± 1.78% | −3.35 ± 0.19 (6) |  |  |  |  |
| C[C@@H](NC(=O)[C@@H](CCCNC(=N)N)NC(=O)[C@@H](CN)NC(=O)CN1CCN(CC(=O)O)CCN(CC(=O)O)CCN(CC(=O)O)CC1)C(=O)Nc1ccc(C(=O)NCCC[C@@H]2C(=O)N[C@@H](CCCNC(=N)N)C(=O)N[C@@H](Cc3ccc4ccccc4c3)C(=O)NCC(=O)N[C@H](Cc3ccc(O)c(I)c3)C(=O)N2C)cc1 [CXCR4-DOTA-4 [Lu]] (cyclo([dTyr(3-I)][dNMeOrn]([4Abz-dA-dR-dDap-DOTA])R[2Nal]G)) | 381 ± 16.2% | 16.0 ± 0.58% | 20.7 ± 0.59% | 588 ± 34.1% | 24.6 ± 1.38% | 30.6 ± 1.56% | 685 ± 50.1% | 32.4 ± 0.60% | 39.3 ± 0.52% | 675 ± 47.4% | 675 % Fc-131 | 37.2 ± 2.16% | 53.23 ± 1.06% | −2.89 ± 0.10 (6) |  |  |  |  |
| C[C@@H](NC(=O)[C@@H](CCCNC(N)=O)NC(=O)[C@@H](CN)NC(=O)CN1CCN(CC(=O)O)CCN(CC(=O)O)CCN(CC(=O)O)CC1)C(=O)Nc1ccc(C(=O)NCCC[C@@H]2C(=O)N[C@@H](CCCNC(=N)N)C(=O)N[C@@H](Cc3ccc4ccccc4c3)C(=O)NCC(=O)N[C@H](Cc3ccc(O)cc3)C(=O)N2C)cc1 [CXCR4-DOTA-5 [Lu]] (cyclo([dY][dNMeOrn]([4Abz-dA-dCit-dDap-DOTA])R[2Nal]G)) | 97.3 ± 8.78% | 3.47 ± 0.46% | 3.52 ± 0.31% | 151 ± 4.51% | 4.66 ± 0.45% | 5.80 ± 0.14% | 151 ± 15.9% | 5.21 ± 0.48% | 6.94 ± 0.59% | 190 ± 13.0% | 190 % Fc-131 | 3.94 ± 0.45% | 9.65 ± 0.16% | −3.58 ± 0.08 (8) |  |  |  |  |
| C[C@@H](NC(=O)[C@@H](CCCNC(=N)N)NC(=O)[C@@H](CNC(=O)c1ccc([Si](F)(C(C)(C)C)C(C)(C)C)cc1)NC(=O)CC[C@H](C(=O)O)N1CCN(CC(=O)O)CCN(CC(=O)O)CCN(CC(=O)O)CC1)C(=O)Nc1ccc(C(=O)NCCC[C@@H]2C(=O)N[C@@H](CCCNC(=N)N)C(=O)N[C@@H](Cc3ccc4ccccc4c3)C(=O)NCC(=O)N[C@H](Cc3ccc(O)cc3)C(=O)N2C)cc1 [CXCR4-SiFA-1 [Ga]] |  |  |  |  |  |  |  |  |  |  |  |  |  | 0.66 ± 0.01 (8) |  |  |  |  |
| C[C@@H](NC(=O)[C@@H](CCCNC(=N)N)NC(=O)[C@@H](CNC(=O)c1ccc([Si](F)(C(C)(C)C)C(C)(C)C)cc1)NC(=O)CC[C@H](C(=O)O)N1CCN(CC(=O)O)CCN(CC(=O)O)CCN(CC(=O)O)CC1)C(=O)Nc1ccc(C(=O)NCCC[C@@H]2C(=O)N[C@@H](CCCNC(=N)N)C(=O)N[C@@H](Cc3ccc4ccccc4c3)C(=O)NCC(=O)N[C@H](Cc3ccc(O)cc3)C(=O)N2C)cc1 [CXCR4-SiFA-1 [Lu]] |  |  |  |  |  |  |  |  |  |  |  |  |  | 1.41 ± 0.04 (8) |  |  |  |  |
| C[C@@H](NC(=O)[C@@H](CCCNC(=N)N)NC(=O)[C@@H](Cc1c[nH]cn1)NC(=O)[C@@H](CNC(=O)c1ccc([Si](F)(C(C)(C)C)C(C)(C)C)cc1)NC(=O)CC[C@H](C(=O)O)N1CCN(CC(=O)O)CCN(CC(=O)O)CCN(CC(=O)O)CC1)C(=O)Nc1ccc(C(=O)NCCC[C@@H]2C(=O)N[C@@H](CCCNC(=N)N)C(=O)N[C@@H](Cc3ccc4ccccc4c3)C(=O)NCC(=O)N[C@H](Cc3ccc(O)cc3)C(=O)N2C)cc1 [CXCR4-SiFA-2 [Ga]] |  |  |  | 500 ± 23.1% | 0.08 ± 0.23% | 12.5 ± 0.46% |  |  |  |  |  |  |  | 0.39 ± 0.07 (8) | 562 % Fc-131 | 562 ± 33.0% | 0.43 ± 0.26% | 16.5 ± 0.94% |
| C[C@@H](NC(=O)[C@@H](CCCNC(=N)N)NC(=O)[C@@H](Cc1c[nH]cn1)NC(=O)[C@@H](CNC(=O)c1ccc([Si](F)(C(C)(C)C)C(C)(C)C)cc1)NC(=O)CC[C@H](C(=O)O)N1CCN(CC(=O)O)CCN(CC(=O)O)CCN(CC(=O)O)CC1)C(=O)Nc1ccc(C(=O)NCCC[C@@H]2C(=O)N[C@@H](CCCNC(=N)N)C(=O)N[C@@H](Cc3ccc4ccccc4c3)C(=O)NCC(=O)N[C@H](Cc3ccc(O)cc3)C(=O)N2C)cc1 [CXCR4-SiFA-2 [Lu]] |  |  |  |  |  |  |  |  |  |  |  |  |  | 0.80 ± 0.04 (8) |  |  |  |  |
| C[C@@H](NC(=O)[C@@H](CCCNC(=N)N)NC(=O)[C@@H](CN)NC(=O)[C@@H](CNC(=O)c1ccc([Si](F)(C(C)(C)C)C(C)(C)C)cc1)NC(=O)[C@@H](CCCCNC(=O)CC[C@H](C(=O)O)N1CCN(CC(=O)O)CCN(CC(=O)O)CCN(CC(=O)O)CC1)NC(=O)CC[C@H](C(=O)O)N1CCN(CC(=O)O)CCN(CC(=O)O)CCN(CC(=O)O)CC1)C(=O)Nc1ccc(C(=O)NCCC[C@@H]2C(=O)N[C@@H](CCCNC(=N)N)C(=O)N[C@@H](Cc3ccc4ccccc4c3)C(=O)NCC(=O)N[C@H](Cc3ccc(O)cc3)C(=O)N2C)cc1 [CXCR4-SiFA-3 [Ga]] (I: X7-[dK](X7)[dDap](Benzoyl(4-SiFtBu2))[dDap][dR][dA][4Abz] / II: cyclo([dY][dNMeOrn]R[2Nal]G); amide I:C-II:2) |  |  |  |  |  |  |  |  |  |  |  |  |  | −1.65 ± 0.09 (8) |  |  |  |  |
| C[C@@H](NC(=O)[C@@H](CCCNC(=N)N)NC(=O)[C@@H](CN)NC(=O)[C@@H](CNC(=O)CC[C@H](C(=O)O)N1CCN(CC(=O)O)CCN(CC(=O)O)CCN(CC(=O)O)CC1)NC(=O)[C@@H](CNC(=O)c1ccc([Si](F)(C(C)(C)C)C(C)(C)C)cc1)NC(=O)CC[C@@H](NC(=O)N[C@H](CCC(=O)O)C(=O)O)C(=O)O)C(=O)Nc1ccc(C(=O)NCCC[C@@H]2C(=O)N[C@@H](CCCNC(=N)N)C(=O)N[C@@H](Cc3ccc4ccccc4c3)C(=O)NCC(=O)N[C@H](Cc3ccc(O)cc3)C(=O)N2C)cc1 [CXCR4-SiFA-4 [Ga]] (I: {dE-CO-d(γGlu)}-[dDap](Benzoyl(4-SiFtBu2))[dDap](X7)[dDap][dR][dA][4Abz] / II: cyclo([dY][dNMeOrn]R[2Nal]G); amide I:C-II:2) |  |  |  | 56.6 ± 8.36% | 0.10 ± 0.15% | 1.36 ± 0.18% |  |  |  |  |  |  |  | −1.92 ± 0.06 (8) | 58 % Fc-131 | 57.7 ± 5.43% | 0.37 ± 0.20% | 1.80 ± 0.15% |
